Each compound was assayed against human PAD4 (hPAD4) (Homo sapiens (Human), UniProt Q9UM07) (assay: RFMS Human PAD4 Functional Assay 1). Settings: RFMS assay 1; 5 nM hPAD4, 250 μM BAEE substrate, 50 μM calcium, 37° C.
Format: biochemical
Method in brief: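 Citrullination product read by RapidFire triple-quad MRM against a modified-citrulline internal standard, after TCA stop and 30 min phenyl glyoxal step at 37 °C. Reaction: 250 μM BAEE, 5 nM human PAD4, 90 min at 37 °C, pH 7.5 HEPES buffer with 50 μM calcium and 5 μM TPEN, following 30 min compound–enzyme preincubation (max 50 μM).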

Sequence of human PAD4 (hPAD4) (Q9UM07 whole entry): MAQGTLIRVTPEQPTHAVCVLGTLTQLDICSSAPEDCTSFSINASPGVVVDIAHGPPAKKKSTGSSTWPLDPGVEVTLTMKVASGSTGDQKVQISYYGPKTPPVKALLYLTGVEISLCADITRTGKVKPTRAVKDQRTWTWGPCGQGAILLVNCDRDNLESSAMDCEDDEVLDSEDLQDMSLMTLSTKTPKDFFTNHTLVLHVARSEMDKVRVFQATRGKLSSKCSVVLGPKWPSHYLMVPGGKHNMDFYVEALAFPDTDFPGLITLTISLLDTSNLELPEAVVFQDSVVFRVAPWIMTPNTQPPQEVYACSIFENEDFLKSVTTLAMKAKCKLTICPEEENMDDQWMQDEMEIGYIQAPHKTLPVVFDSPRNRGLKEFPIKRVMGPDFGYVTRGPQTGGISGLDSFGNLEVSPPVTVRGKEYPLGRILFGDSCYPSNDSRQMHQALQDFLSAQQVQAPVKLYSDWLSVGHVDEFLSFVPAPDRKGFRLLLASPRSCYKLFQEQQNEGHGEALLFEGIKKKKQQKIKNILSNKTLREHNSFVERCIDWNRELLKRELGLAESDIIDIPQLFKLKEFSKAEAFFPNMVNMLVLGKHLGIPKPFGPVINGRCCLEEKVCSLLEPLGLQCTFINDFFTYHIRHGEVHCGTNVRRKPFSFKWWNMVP

Row | Compound | IC50 [nM]
1 | COc1cc(C(=O)N2C[C@H](N)C[C@@H](F)C2)cn2nc(-c3cc4ccc(-c5ccc6c(c5)C(=O)NC6)cc4n3CC3CC3)c(C)c12 [Example 29, 6-(2-(6-((3R,5R)-3-Amino-5-fluoropiperidine-1-carbonyl)-4-methoxy-3-methylpyrazolo[1,5-a]pyridin-2-yl)-1-(cyclopropylmethyl)-1H-indol-6-yl)isoindolin-1-one] | 1020
2 | COc1cc(C(=O)N2C[C@H](N)C[C@@H](F)C2)cn2nc(-c3cc4ccc(-c5ccc6c(c5)CNC6=O)cc4n3CC3CC3)c(C)c12 [Example 30, 5-(2-(6-((3R,5R)-3-Amino-5-fluoropiperidine-1-carbonyl)-4-methoxy-3-methylpyrazolo[1,5-a]pyridin-2-yl)-1-(cyclopropylmethyl)-1H-indol-6-yl)isoindolin-1-one] | 84
3 | COc1cc(C(=O)N2C[C@H](N)C[C@@H](F)C2)cn2nc(-c3cc4ccc(-c5ccn6c(C)nnc6c5)cc4n3CC3CC3)c(C)c12 [Example 31, ((3R,5R)-3-Amino-5-fluoropiperidin-1-yl)(2-(1-(cyclopropylmethyl)-6-(3-methyl-[1,2,4]triazolo[4,3-a]pyridin-7-yl)-1H-indol-2-yl)-4-methoxy-3-methylpyrazolo[1,5-a]pyridin-6-yl)methanone] | 65
4 | COc1cc(C(=O)N2C[C@H](N)C[C@@H](F)C2)cn2nc(-c3cc4ccc(-c5cccc(O)c5F)cc4n3CC3CC3)c(C)c12 [Example 32, ((3R,5R)-3-Amino-5-fluoropiperidin-1-yl)(2-(1-(cyclopropylmethyl)-6-(2-fluoro-3-hydroxyphenyl)-1H-indol-2-yl)-4-methoxy-3-methylpyrazolo[1,5-a]pyridin-6-yl)methanone] | 414
5 | COCC1CN(c2ccc3cc(-c4nn5cc(C(=O)N6C[C@H](N)C[C@@H](F)C6)cc(OC)c5c4C)n(CC4CC4)c3c2)C1 [Example 33, ((3R,5R)-3-Amino-5-fluoropiperidin-1-yl)(2-(1-(cyclopropylmethyl)-6-(3-(methoxymethyl)-azetidin-1-yl)-1H-indol-2-yl)-4-methoxy-3-methylpyrazolo[1,5-a]pyridin-6-yl)methanone] | 534
6 | COc1cc(C(=O)N2C[C@H](N)C[C@@H](F)C2)cn2nc(-c3cc4ccc(N5C[C@H](N)C[C@@H](F)C5)cc4n3CC3CC3)c(C)c12 [Example 34, ((3R,5R)-3-Amino-5-fluoropiperidin-1-yl)(2-(6-((3R,5R)-3-amino-5-fluoropiperidin-1-yl)-1-(cyclopropylmethyl)-1H-indol-2-yl)-4-methoxy-3-methylpyrazolo[1,5-a]pyridin-6-yl)methanone] | 42
7 | COc1cc(C(=O)N2C[C@H](N)C[C@@H](F)C2)cn2nc(-c3cc4ccc(N5CCC(OC)CC5)cc4n3CC3CC3)c(C)c12 [Example 35, ((3R,5R)-3-Amino-5-fluoropiperidin-1-yl)(2-(1-(cyclopropylmethyl)-6-(4-methoxypiperidin-1-yl)-1H-indol-2-yl)-4-methoxy-3-methylpyrazolo[1,5-a]pyridin-6-yl)methanone] | 139
8 | COc1cc(C(=O)N2C[C@H](N)C[C@@H](F)C2)cn2nc(-c3cc4ccc(NC[C@@H](F)C(C)(C)O)cc4n3CC3CC3)c(C)c12 [Example 36, ((3R,5R)-3-Amino-5-fluoropiperidin-1-yl)(2-(1-(cyclopropylmethyl)-6-(((R)-2-fluoro-3-hydroxy-3-methylbutyl)amino)-1H-indol-2-yl)-4-methoxy-3-methylpyrazolo[1,5-a]pyridin-6-yl)methanone] | 782
9 | COc1cc(C(=O)N2C[C@H](N)C[C@@H](F)C2)cn2nc(-c3cc4ccc(N5CC(F)(CO)C5)cc4n3CC3CC3)c(C)c12 [Example 37, ((3R,5R)-3-Amino-5-fluoropiperidin-1-yl)(2-(1-(cyclopropylmethyl)-6-(3-fluoro-3-(hydroxymethyl)azetidin-1-yl)-1H-indol-2-yl)-4-methoxy-3-methylpyrazolo[1,5-a]pyridin-6-yl)methanone] | 3610
10 | Cc1c(-c2cc3cccnc3n2CC2CC2)nn2cc(C(=O)N3CC4CCC3[C@@H]4N)cc(F)c12 (stereo partly drawn) [Example 38, ((7R)-7-Amino-2-azabicyclo[2.2.1]heptan-2-yl)(2-(1-(cyclopropylmethyl)-1H-pyrrolo[2,3-b]pyridin-2-yl)-4-fluoro-3-methylpyrazolo[1,5-a]pyridin-6-yl)methanone] | 158
11 | Cc1c(-c2cc3ccc(Cl)nc3n2CC2CC2)nn2cc(C(=O)N3CC4CCC3[C@@H]4N)cc(F)c12 (stereo partly drawn) [Example 39, ((7R)-7-Amino-2-azabicyclo[2.2.1]heptan-2-yl)(2-(6-chloro-1-(cyclopropylmethyl)-1H-pyrrolo[2,3-b]pyridin-2-yl)-4-fluoro-3-methylpyrazolo[1,5-a]pyridin-6-yl)methanone] | 87
12 | Cc1ccc2cc(-c3nn4cc(C(=O)N5CC6CCC5[C@@H]6N)cc(F)c4c3C)n(CC3CC3)c2n1 (stereo partly drawn) [Example 40, 3((7R)-7-Amino-2-azabicyclo[2.2.1]heptan-2-yl)(2-(1-(cyclopropylmethyl)-6-methyl-1H-pyrrolo[2,3-b]pyridin-2-yl)-4-fluoro-3-methylpyrazolo[1,5-a]pyridin-6-yl)methanone] | 25
13 | Cc1c(-c2cc3ccc(C4CC4)nc3n2CC2CC2)nn2cc(C(=O)N3CC4CCC3[C@@H]4N)cc(F)c12 (stereo partly drawn) [Example 41, ((7R)-7-Amino-2-azabicyclo[2.2.1]heptan-2-yl)(2-(6-cyclopropyl-1-(cyclopropylmethyl)-1H-pyrrolo[2,3-b]pyridin-2-yl)-4-fluoro-3-methylpyrazolo[1,5-a]pyridin-6-yl)methanone] | 85
14 | Cc1c(-c2cc3ccc(-c4ccc5c(c4)CNC5=O)nc3n2CC2CC2)nn2cc(C(=O)N3CC4CCC3[C@@H]4N)cc(F)c12 (stereo partly drawn) [Example 42, 5-(2-(6-((7R)-7-Amino-2-azabicyclo[2.2.1]heptane-2-carbonyl)-4-fluoro-3-methylpyrazolo[1,5-a]pyridin-2-yl)-1-(cyclopropylmethyl)-1H-pyrrolo[2,3-b]pyridin-6-yl)isoindolin-1-one] | 9
15 | Cc1c(-c2cc3ccc(-c4ccn5c(C)nnc5c4)nc3n2CC2CC2)nn2cc(C(=O)N3CC4CCC3[C@@H]4N)cc(F)c12 (stereo partly drawn) [Example 43, ((7R)-7-Amino-2-azabicyclo[2.2.1]heptan-2-yl)(2-(1-(cyclopropylmethyl)-6-(3-methyl-[1,2,4]triazolo[4,3-a]pyridin-7-yl)-1H-pyrrolo[2,3-b]pyridin-2-yl)-4-fluoro-3-methylpyrazolo[1,5-a]pyridin-6-yl)methanone] | 150
16 | Cc1c(-c2cc3ccc(-c4ccc(OC(F)F)c(F)c4)nc3n2CC2CC2)nn2cc(C(=O)N3CC4CCC3[C@@H]4N)cc(F)c12 (stereo partly drawn) [Example 44, ((7R)-7-Amino-2-azabicyclo[2.2.1]heptan-2-yl)(2-(1-(cyclopropylmethyl)-6-(4-(difluoromethoxy)-3-fluorophenyl)-1H-pyrrolo[2,3-b]pyridin-2-yl)-4-fluoro-3-methylpyrazolo[1,5-a]pyridin-6-yl)methanone] | 1480
17 | COc1cc(-c2ccc3cc(-c4nn5cc(C(=O)N6CC7CCC6[C@@H]7N)cc(F)c5c4C)n(CC4CC4)c3n2)c(F)cn1 (stereo partly drawn) [Example 45, ((7R)-7-Amino-2-azabicyclo[2.2.1]heptan-2-yl)(2-(1-(cyclopropylmethyl)-6-(5-fluoro-2-methoxypyridin-4-yl)-1H-pyrrolo[2,3-b]pyridin-2-yl)-4-fluoro-3-methylpyrazolo[1,5-a]pyridin-6-yl)methanone] | 101
18 | Cc1c(-c2cc3ccc(-c4ccc5c(c4)C(=O)NC5)nc3n2CC2CC2)nn2cc(C(=O)N3CC4CCC3[C@@H]4N)cc(F)c12 (stereo partly drawn) [Example 46, 6-(2-(6-((7R)-7-Amino-2-azabicyclo[2.2.1]heptane-2-carbonyl)-4-fluoro-3-methylpyrazolo[1,5-a]pyridin-2-yl)-1-(cyclopropylmethyl)-1H-pyrrolo[2,3-b]pyridin-6-yl)isoindolin-1-one] | 41
19 | Cc1c(-c2cc3ccc(-c4ccc(OC(F)F)cc4)nc3n2CC2CC2)nn2cc(C(=O)N3CC4CCC3[C@@H]4N)cc(F)c12 (stereo partly drawn) [Example 47, ((7R)-7-Amino-2-azabicyclo[2.2.1]heptan-2-yl)(2-(1-(cyclopropylmethyl)-6-(4-(difluoromethoxy)phenyl)-1H-pyrrolo[2,3-b]pyridin-2-yl)-4-fluoro-3-methylpyrazolo[1,5-a]pyridin-6-yl)methanone] | 1480
20 | Cc1c(-c2cc3ccc(-c4ccc(O)c(F)c4)nc3n2CC2CC2)nn2cc(C(=O)N3CC4CCC3[C@@H]4N)cc(F)c12 (stereo partly drawn) [Example 48, ((7R)-7-Amino-2-azabicyclo[2.2.1]heptan-2-yl)(2-(1-(cyclopropylmethyl)-6-(3-fluoro-4-hydroxyphenyl)-1H-pyrrolo[2,3-b]pyridin-2-yl)-4-fluoro-3-methylpyrazolo[1,5-a]pyridin-6-yl)methanone] | 326
21 | Cc1c(-c2cc3ccc(-c4cccc(O)c4F)nc3n2CC2CC2)nn2cc(C(=O)N3CC4CCC3[C@@H]4N)cc(F)c12 (stereo partly drawn) [Example 49, ((7R)-7-Amino-2-azabicyclo[2.2.1]heptan-2-yl)(2-(1-(cyclopropylmethyl)-6-(2-fluoro-3-hydroxyphenyl)-1H-pyrrolo[2,3-b]pyridin-2-yl)-4-fluoro-3-methylpyrazolo[1,5-a]pyridin-6-yl)methanone] | 36
22 | COC1CN(c2ccc3cc(-c4nn5cc(C(=O)N6CC7CCC6[C@@H]7N)cc(F)c5c4C)n(CC4CC4)c3n2)C1 (stereo partly drawn) [Example 50, ((7R)-7-Amino-2-azabicyclo[2.2.1]heptan-2-yl)(2-(1-(cyclopropylmethyl)-6-(3-methoxyazetidin-1-yl)-1H-pyrrolo[2,3-b]pyridin-2-yl)-4-fluoro-3-methylpyrazolo[1,5-a]pyridin-6-yl)methanone] | 74
23 | Cc1c(-c2cc3ccc(N4CCC[C@@H](O)C4)nc3n2CC2CC2)nn2cc(C(=O)N3CC4CCC3[C@@H]4N)cc(F)c12 (some centres unmarked) [Example 51] | 109
